In patent US7214708B2, “Synthetic discodermolide analogs” (priority 2004, dated 2007):

Assays:
A549 = experiment: inhibition of proliferation of tumor cell line A549; format: cell-based; settings: A549 human lung cancer cell line; some results are the average of multiple runs
Procedure: (§1) The biological activities of compounds I were evaluated by measuring their inhibitory effect on the proliferation of various tumor cell lines. MCF-7, A549, SKOV-3, and CCRF-CEM are human breast cancer, lung cancer, ovary cancer, and leukemia cell lines, respectively. HL-60/MX2 is a leukemia cell line resistant to mitoxantrone. A549 t12 is an A549 subline resistant to paclitaxel. CCRF-CEM/PTX, CCRF-CEM/VBL, and CCRF-CEM/VP16 are CCRF-CEM sublines resistant to paclitaxel, vinblastine, and VP-16 (etoposide), respectively. NCI/ADR (also referred to as NCI/ADR-Res) is a multi-drug resistant human breast cancer cell line.
(§2) The biological activity of compound II-A was evaluated by measuring its inhibitory effect on the proliferation of various tumor cell lines. (The characteristics of the various cell lines employed was previously described hereinabove.)
(§3) The biological activity of compounds III was evaluated by measuring their inhibitory effect on the proliferation of various tumor cell lines. The characteristics of the cells lines used has been described hereinabove.
(§4) The biological activity of compounds IV was evaluated by measuring their inhibitory effect on the proliferation of various tumor cell lines. The characteristics of the cell lines used has been discussed hereinabove.

MCF-7 = experiment: inhibition of proliferation of tumor cell line MCF-7; format: cell-based; settings: MCF-7 human breast cancer cell line, some results are the average of multiple runs
Procedure: as §1, §2, §3, §4

NCI/ADR = experiment: inhibition of proliferation of tumor cell line NCI/ADR; format: cell-based; settings: NCI/ADR (NCI/ADR-Res) multi-drug resistant human breast cancer cell line; some results are the average of multiple runs
Procedure: as §1, §2, §3, §4

A549 t12 = experiment: inhibition of proliferation of tumor cell line A549 t12; format: cell-based, human; settings: A549 t12, A549 subline resistant to paclitaxel, some results are the average of multiple runs
Procedure: as §1, §2, §4

CCRF-CEM/VBL = experiment: inhibition of proliferation of tumor cell line CCRF-CEM/VBL; format: cell-based, human; settings: CCRF-CEM subline resistant to vinblastine, some results are the average of multiple runs
Procedure: as §1, §2, §4

CCRF-CEM = experiment: inhibition of proliferation of tumor cell line CCRF-CEM; format: cell-based; settings: CCRF-CEM human leukemia cell line; some results are the average of multiple runs
Procedure: as §1, §2, §4

CCFR-CEM/VP16 = experiment: inhibition of proliferation of tumor cell line CCRF-CEM/VP16; format: cell-based, human; settings: CCRF-CEM subline resistant to VP-16 (etoposide), some results are the average of multiple runs
Procedure: as §1, §2, §4

HL-60/MX2 = experiment: inhibition of proliferation of tumor cell line HL-60/MX2; format: cell-based; settings: HL-60/MX2 leukemia cell line resistant to mitoxantrone, some results are the average of multiple runs
Procedure: as §1, §2, §4

SKOV-3 = experiment: inhibition of proliferation of tumor cell line SKOV-3; format: cell-based; settings: SKOV-3 human ovary cancer cell line, some results are the average of multiple runs
Procedure: as §1, §2, §3

CCRF-CEM/PTX = experiment: inhibition of proliferation of tumor cell line CCRF-CEM/PTX; format: cell-based, human; settings: CCRF-CEM subline resistant to paclitaxel, some results are the average of multiple runs
Procedure: as §1, §2, §4

Row | Compound | IC50 (A549) [nM] | IC50 (MCF-7; MCF7) [nM] | IC50 (NCI/ADR) [nM] | IC50 (A549 t12; Homo sapiens) [nM] | IC50 (CCRF-CEM/VBL; Homo sapiens) [nM] | IC50 (CCRF-CEM) [nM] | IC50 (CCFR-CEM/VP16; Homo sapiens) [nM] | IC50 (HL-60/MX2; Homo sapiens, HL60/MX2) [nM] | IC50 (SKOV-3; SK-OV-3) [nM] | IC50 (CCRF-CEM/PTX; Homo sapiens) [nM] | IC50 (CCRF-CEM/VBL) [nM] | IC50 (CCFR-CEM/VP16) [nM] | IC50 (MCF-7) [nM] | IC50 (HL-60/MX2) [nM] | IC50 (SKOV-3) [nM] | IC50 (CCRF-CEM/PTX) [nM] | IC50 (A549 t12) [nM]
1 | C=C/C=C\[C@H](C)[C@H](OC(N)=O)[C@@H](C)[C@H](O)[C@@H](C)C/C(C)=C\[C@H](C)[C@@H](O)[C@@H](C)/C=C\[C@H](C[C@@H]1OC(=O)[C@H](C)[C@@H](O)[C@H]1C)OCOCCOC [I-B] | 6.7 | 5.5 | 140 | 5.8 | – | – | – | – | – | – | – | – | – | – | – | – | –
2 | C=C/C=C\[C@H](C)[C@H](OC(N)=O)[C@@H](C)[C@H](O)[C@@H](C)C/C(C)=C\[C@H](C)[C@@H](O)[C@@H](C)/C=C(/C)[C@@H](O)C[C@@H]1OC(=O)[C@H](C)[C@@H](O)[C@H]1C [II-A, 8-methyldiscodermolide] | 12 | 7.7 | 610 | 31 | 152 | 5.6 | 9 | 11 | 29 | 42.3 | – | – | – | – | – | – | –
3 | C=C/C=C\[C@H](C)[C@H](OC(N)=O)[C@@H](C)[C@H](O)[C@@H](C)C/C(C)=C\[C@H](C)[C@@H](O)[C@@H](C)/C=C\[C@@H](O)C[C@H]1CCC(=O)O1 [III-A] | 4.9 | 2.9 | 350 | – | – | – | – | – | 14 | – | – | – | – | – | – | – | –
4 | CC/C=C\[C@H](C)[C@H](OC(N)=O)[C@@H](C)[C@H](O)[C@@H](C)C/C(C)=C\[C@H](C)[C@@H](O)[C@@H](C)/C=C\[C@@H](O)C[C@H]1CCC(=O)O1 [III-B] | 46 | 6.4 | 730 | – | – | – | – | – | 15 | – | – | – | – | – | – | – | –
5 | CC/C=C\[C@H](C)[C@H](OC(N)=O)[C@@H](C)[C@H](O)[C@@H](C)C/C(C)=C\[C@H](C)[C@@H](O)[C@@H](C)/C=C\[C@@H](O)C[C@@H]1OC(=O)[C@H](C)[C@@H](OC)[C@H]1C [IV-A] | 11 | 5.8 | 140 | 50 | 209 | 8.6 | 12 | 12 | – | 65 | – | – | – | – | – | – | –
6 | CC/C=C\[C@H](C)[C@H](OC(N)=O)[C@@H](C)[C@H](O)[C@@H](C)C/C(C)=C\[C@H](C)[C@@H](O)[C@@H](C)/C=C\[C@@H](O)C[C@@H]1OC(=O)[C@H](C)C[C@H]1C [IV-B] | 6.5 | 3.8 | 250 | 12 | 416 | 4.4 | 8.4 | 4.1 | – | 79 | – | – | – | – | – | – | –
7 | (+)-Discodermolide [reference compound] | 24.4 | – | 247 | – | – | 14.8 | – | – | – | – | 158 | 53 | 14.1 | 150 | 31.7 | 92.8 | 26.7
